Like-named read-outs stand apart in the source and are kept apart here.

In one experiment the test system is HT-29 cells. The experiment can be described thus: In vitro assay for protection of HT-29 cells from necroptosis (TNFα/Smac mimetic/Z-VAD-FMK induction, CCK8 readout). It counts as cell-based. To be noted: read-out: HT-29 (EC50).
Another experiment concerns the target T1, RIPK1 Kinase (Homo sapiens, UniProt Q13546).
T1 construct: purchased Eurofins (Kinase Profiler service)
T1 sequence (Q13546 1-671): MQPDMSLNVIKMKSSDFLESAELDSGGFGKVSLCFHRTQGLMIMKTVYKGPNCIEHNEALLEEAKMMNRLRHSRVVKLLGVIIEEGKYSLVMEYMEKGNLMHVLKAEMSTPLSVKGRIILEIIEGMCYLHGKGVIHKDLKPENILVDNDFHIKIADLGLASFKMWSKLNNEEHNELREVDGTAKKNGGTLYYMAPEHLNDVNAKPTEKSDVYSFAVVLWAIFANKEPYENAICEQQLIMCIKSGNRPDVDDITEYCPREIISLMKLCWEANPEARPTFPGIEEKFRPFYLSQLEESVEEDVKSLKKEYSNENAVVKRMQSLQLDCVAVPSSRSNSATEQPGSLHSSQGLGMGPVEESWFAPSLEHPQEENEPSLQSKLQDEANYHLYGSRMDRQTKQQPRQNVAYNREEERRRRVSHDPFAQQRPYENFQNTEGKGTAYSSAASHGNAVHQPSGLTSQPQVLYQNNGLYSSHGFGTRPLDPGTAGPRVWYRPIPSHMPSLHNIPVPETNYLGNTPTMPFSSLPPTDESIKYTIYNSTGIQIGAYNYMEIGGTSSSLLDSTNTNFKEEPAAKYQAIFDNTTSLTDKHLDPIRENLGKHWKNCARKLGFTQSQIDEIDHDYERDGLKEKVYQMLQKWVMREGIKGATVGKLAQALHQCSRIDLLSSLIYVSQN
In words: biochemical.

A further experiment has as its target MLK2/3 kinase. In words: In vitro MLK2/3 kinase assay (ADP-Glo method, ICE Bioscience). Format: biochemical.
[1] abbreviates: TNFα/Smac mimetic/Z-VAD-FMK for 24 h, inhibition of necroptosis.
Setting [2] is: compound 0.001-10 µM, read-out: RIPK1(IC50).

Procedure for MLK2/3 kinase: The in vitro MLK2/3 kinase assay utilized the ADP-Glo method provided by ICE Bioscience INC. A drug screening system based on MLK2/3 kinase was employed to evaluate the inhibiting ability of small molecule compounds against kinase activity. The experimental method is as follows: ADP-Glo Method • 1. 2 × ATP/substrate solution and 2 × kinase solution were prepared using kinase reaction buffer. • 2. 40 nL of the compound diluent was transferred into a 384-well plate using an Echo 655. After centrifugation, 2 µL of 2 × kinase solution was added to the 384-well plate, centrifuged at 1000 rpm for 1 min, and incubated at 25°C for 10 min; • 3.2 µL of 2 × substrate and ATP solution was added into the 384-well plate, centrifuged at 1000 rpm for 1 min, and incubated at 25°C for 60 min. • 4. 4 µL of ADP-Glo was transferred to a 384-well plate, centrifuged at 1000 rpm for 1 min, and incubated at 25°C for 40 min. • 5. 8 µL of test solution was transferred to a 384-well plate, centrifuged at 1000 rpm for 1 min, and incubated at 25°C for 40 min. • 6. The luminescence signal was read using a multifunctional microplate reader. • 7. Data Analysis
The IC50 (half inhibitory concentration) of a compound was obtained using the following non-linear fitting formula: Y = Bottom + (Top−Bottom)/(1+10^(∧)((LogIC50−X)*HillSlope)) [formula] • X: Compound concentration log value • Y: Compound inhibition rate (% inh)
Procedure for RIPK1 Kinase: This assay was completed using the Kinase Profiler service provided by Eurofins. The experimental method was as follows: The small molecule compound to be tested (0.001-10 µM) and the protein kinase to be tested were incubated with a buffer containing a substrate, 10 mM magnesium acetate, and [γ-^33P-ATP]. The reaction was initiated by adding a Mg\ATPmix. After incubation at room temperature for a period of time, a 3% phosphate solution was added to the buffer to terminate the reaction. Subsequently, 10 µL of the reaction mixture was quantitatively pipetted and dropped onto P30 filter paper. The paper was washed three times with 75 mM phosphate solution and once with methanol. After drying, scintillation fluid was added for scinticounting. The inhibitory activity of the compound was expressed as the half-maximal inhibitory concentration (IC50). The IC50 values were derived by fitting the inhibition rates corresponding to the respective concentration gradients.

As to `C[C@H](NC(=O)c1cn(C)c2ccc(-c3ccn4nc(NC(=O)CN5CC(O)CC5=O)nc4c3)cc12)c1ccc(F)cc1` (single isomer, unassigned) [Compound 3], the EC50 in the experiment on HT-29 cells (Homo sapiens, HT-29, 24 h) lay in the range of 10 to 100 nM. This compound also gave an IC50 against RIPK1 Kinase of 10 to 100 nM. For the compound `CC(=O)Nc1nc2cc(-c3ccc4c(c3)c(C(=O)NC3CCc5cc(F)ccc53)cn4C)ccn2n1` (single isomer, unassigned) [Compound 127], in the experiment on HT-29 cells (Homo sapiens, HT-29, 24 h), the EC50 is 1000 to 10000 nM. On RIPK1 Kinase, this compound registered an IC50 of 100 to 1000 nM.

As to `C[C@H](NC(=O)c1cn(C)c2ccc(-c3ccn4nc(NC(=O)CN5C6CC7CC(C6)C(O)C5C7)nc4c3)cc12)c1ccc(F)cc1` (stereo partly shown) [Compound 59], the EC50 with HT-29 cells (setting [1]) was under 1 nM. At RIPK1 Kinase (setting [2]), the IC50 was in the range of 10 to 100 nM. With `C[C@H](NC(=O)c1cn(C)c2ccc(-c3ccn4nc(NC(=O)CN5CCOC[C@@H]5C)nc4c3)cc12)c1ccc(F)cc1` [Compound 60], at RIPK1 Kinase, the IC50 was 10 to 100 nM. `COCCNCC(=O)Nc1nc2cc(-c3ccc4c(c3)c(C(=O)N[C@@H](C)c3ccc(F)cc3)cn4C)ccn2n1` [Compound 68] showed an IC50 against RIPK1 Kinase of 10 to 100 nM. Take `C[C@H](NC(=O)c1cn(C)c2ccc(-c3ccn4nc(NC(=O)CN5CC6CCC(C5)O6)nc4c3)cc12)c1ccc(F)cc1` [Compound 71]: the IC50 against RIPK1 Kinase lay within 10 to 100 nM. `C[C@H](NC(=O)c1cn(C)c2ccc(-c3ccn4nc(NC(=O)CN(C)CCO)nc4c3)cc12)c1ccc(F)cc1` [Compound 74]: the IC50 against RIPK1 Kinase and against MLK2/3 kinase was 10 to 100 nM each time.

Consider `C[C@H](NC(=O)c1cn(C)c2ccc(-c3ccn4nc(NC(=O)CN5CCOCC5)nc4c3)cc12)c1ccc(F)cc1` [Compound 75], for which the IC50 on RIPK1 Kinase is 1 to 10 nM; against MLK2/3 kinase, 10 to 100 nM. Compound `C[C@H](NC(=O)c1cn(C)c2ccc(-c3ccn4nc(NC(=O)C5CCOC5)nc4c3)cc12)c1ccc(F)cc1` (stereo partly shown) [Compound 106] had an IC50 on RIPK1 Kinase of 10 to 100 nM. Compound `Cn1cc(C(=O)N[C@H]2CCc3ccc(F)cc32)c2cc(-c3ccn4nc(NC(=O)[C@H]5CCCO5)nc4c3)ccc21` [Compound 121] showed an IC50 against RIPK1 Kinase of 10 to 100 nM.

`Cn1cc(C(=O)Nc2nc3cc(-c4ccc5c(c4)c(C(=O)N[C@H]4CCc6ccc(F)cc64)cn5C)ccn3n2)cn1` [Compound 122] gave an IC50 on RIPK1 Kinase of 100 to 1000 nM. Turning to `CC(=O)Nc1nc2cc(-c3ccc4c(c3)c(C(=O)N[C@H]3CCc5ccc(F)cc53)cn4C)ccn2n1` [Compound 124], in the experiment on HT-29 cells (Homo sapiens, HT-29, 24 h), the 50% effective concentration (EC50) fell in the range of 1 to 10 nM. The compound also displayed a half-inhibitory concentration (IC50) at RIPK1 Kinase of 10 to 100 nM.

`Cn1cc(C(=O)N[C@H]2CCc3cc(C#N)ccc32)c2cc(-c3ccn4nc(NC(=O)C5CC5)nc4c3)ccc21` [Compound 130] gave an IC50 against RIPK1 Kinase of 10 to 100 nM. For `CC(=O)Nc1nc2cc(-c3ccc4c(c3)c(C(=O)N[C@H]3CCCc5cc(F)ccc53)cn4C)ccn2n1` [Compound 138], on RIPK1 Kinase (setting [2]), the concentration for half-maximal inhibition (IC50) is 10 to 100 nM. In turn, `Cn1cc(C(=O)N2CC(F)CC2c2ccc(F)cc2)c2cc(-c3ccn4nc(NC(=O)C5CC5)nc4c3)ccc21` (stereo not shown) [Compound 156] returned an IC50 against RIPK1 Kinase of 10 to 100 nM. At RIPK1 Kinase, `Cn1cc(C(=O)N[C@H](c2ccc(F)cc2)C(F)F)c2cc(-c3ccn4nc(NC(=O)C5CC5)nc4c3)ccc21` [Compound 161] registered an IC50 of 1 to 10 nM. With `C[C@@H](c1ccc(F)cc1)N(C)C(=O)c1cn(C)c2ccc(-c3ccn4nc(NC(=O)C5CC5)nc4c3)cc12` [Compound 175], in the experiment on HT-29 cells (Homo sapiens, HT-29, 24 h), the EC50 was under 1 nM. In addition, the half-inhibitory concentration (IC50) against RIPK1 Kinase is 10 to 100 nM.

Take `CC(C(=O)Nc1nn(C)c2ccc(-c3ccn4nc(NC(=O)C5CC5)nc4c3)cc12)c1ccc(F)cc1` (stereo not shown) [Compound 182]: the half-inhibitory concentration (IC50) against RIPK1 Kinase lay in the range of 100 to 1000 nM.

`C[C@H](NC(=O)c1nn(C)c2ccc(-c3ccn4nc(NC(=O)CN5CCOCC5)nc4c3)cc12)c1ccc(F)cc1` [Compound 196] came in with an IC50 on RIPK1 Kinase of 10 to 100 nM. In the case of `CC(c1ccc(F)cc1)n1cnc(-c2cn(C)c3ccc(-c4ccn5nc(NC(=O)C6CC6)nc5c4)cc23)n1` (stereo not shown) [Compound 210], in the experiment on HT-29 cells (setting [1]), the EC50 was in the range of 100 to 1000 nM. For the same compound, the half-inhibitory concentration (IC50) on RIPK1 Kinase (setting [2]) lay in the range of 1000 to 10000 nM.

Usually EC50 stands for the concentration needed to bring the measured effect to its halfway point. The IC50 is the concentration at which inhibition is half-maximal.

For the origin of these results see EP4782448A1, “SUBSTITUTED PYRIDOTRIAZOLE COMPOUND, AND PREPARATION METHOD THEREFOR AND USE THEREOF” (Origiant Pharmaceutical Co., Ltd., priority 2023, dated 2025).
